Experimental data published in patent US20140073631A1 (priority 2012, published 2014).
≈ marks a conversion by molar mass, not a printed value. Read-outs that look alike come from different tables or passages of the source.

Tests used:
Bacillus anthracis = assay: microbe, parasite or virus in culture; assay type: cell-based; details: Bacillus anthracis
B. mallei = assay: microbe, parasite or virus in culture; assay type: cell-based; details: Burkholderia mallei, read-out: MIC B. mallei
TB = assay: DMID TB MIC Results (Table 10); assay type: cell-based; details: Mycobacterium tuberculosis; solvent DMSO
Yersinia pestis = assay: microbe, parasite or virus in culture; assay type: cell-based; details: Yersinia pestis
H37Rv Colorado strain [1] = assay: MBC Determination with H37Rv Colorado strain (Table 9); assay type: cell-based; details: Mycobacterium tuberculosis; Performed with H37Rv
Francisella tularensis = assay: microbe, parasite or virus in culture; assay type: cell-based; details: Francisella tularensis
Burkholderia mallei = assay: microbe, parasite or virus in culture; assay type: cell-based; details: Burkholderia mallei
Plasmodium falciparum = assay: Anti-malaria testing; assay type: cell-based
H37Rv Colorado strain [2] = assay: TB MIC Testing (Table 9); assay type: cell-based; details: Mycobacterium tuberculosis, read-out: MIC Value, Standard Test Strain H27Rv
F. tularensis = assay: microbe, parasite or virus in culture; assay type: cell-based; details: Francisella tularensis, read-out: MIC F. tularensis (Original Test)
Y. pestis = assay: microbe, parasite or virus in culture; assay type: cell-based; details: Yersinia pestis, read-out: MIC Y. pestis
E. coli = assay: microbe, parasite or virus in culture; assay type: cell-based; details: Escherichia coli, read-out: MIC E. coli
B. anthracis = assay: microbe, parasite or virus in culture; assay type: cell-based; details: Bacillus anthracis, read-out: MIC B. anthracis
Vero Cells = assay: Cytotoxicity Assay, CellTiter-Glo Luminescent Cell Viability Assay
B. pseudomallei = assay: microbe, parasite or virus in culture; assay type: cell-based; details: Burkholderia pseudomallei, read-out: MIC B. pseudomallei
P. aeruginosa = assay: microbe, parasite or virus in culture; assay type: cell-based; details: Pseudomonas aeruginosa, read-out: MIC P. aeruginosa
[3] = system: Burkholderia pseudomallei; assay: microbe, parasite or virus in culture; assay type: cell-based
HIV-1 = assay: CEM-SS microtiter antiviral XTT cytoprotection assay; assay type: cell-based
F. tularensis SCHU S4 = system: F. tularensis SCHU S4; parameters: species or system BALB/c mice; details: mouse, in vivo
Y. pestis C092 = assay type: in vivo, BALB/c mice; details: 21 days
[4] = average of Test 1 and Test 2, read-out: Average IC50

CC1COc2c(N3CCN(C(=N)NC#N)CC3)c(F)cc3c(=O)c(C(=O)O)cn1c23 (stereo not drawn) [BVS-60C (XVII)]
MIC90 (Bacillus anthracis): ≤ 0.25 µg/mL
MIC (B. mallei): 1 µg/mL (≈ 2.41 µM)
IC50 (TB): 0.22 µg/mL (≈ 0.531 µM)
IC90 (TB): 0.23 µg/mL (≈ 0.555 µM)
MIC (TB): 0.312 µg/mL (≈ 0.753 µM)
MIC90 (Yersinia pestis): < 4 µg/mL
MBC (H37Rv Colorado strain [1]): 0.625 µg/mL (≈ 1.51 µM)
MIC90 (Francisella tularensis): < 4 µg/mL
MIC90 (Burkholderia mallei): < 4 µg/mL
IC50 (Plasmodium falciparum; [4]): 6.11 µM
IC50 (Plasmodium falciparum; read-out: IC50 Test 1): 6.11 µM
MIC (H37Rv Colorado strain [2]): 0.312 µg/mL (≈ 0.753 µM)
MIC (F. tularensis): < 0.06 µg/mL
MIC (Y. pestis): 0.06 µg/mL (≈ 0.145 µM)
MIC (E. coli): 0.06 to 0.12 µg/mL (≈ 0.145 to 0.29 µM)
MIC (B. anthracis): < 0.06 µg/mL
% Viability (Vero Cells; 0.01 μg/ml): 93%
% Viability (Vero Cells; 0.02 μg/ml): 95%
% Viability (Vero Cells; 5 μg/ml): 92%
% Viability (Vero Cells; 10 μg/ml): 88%
% Viability (Vero Cells; 20 μg/ml, vs […] DMSO controls): 96%
MIC (B. pseudomallei): 1 to 2 µg/mL (≈ 2.41 to 4.83 µM)
MIC (P. aeruginosa): 2 µg/mL (≈ 4.83 µM)

C[C@@H]1COc2c(N3CCN(C(=N)NC(=N)NCCCCCCNC(=N)NC(=N)N4CCN(c5c(F)cc6c(=O)c(C(=O)O)cn7c6c5OC[C@@H]7C)CC4)CC3)c(F)cc3c(=O)c(C(=O)O)cn1c23 [BVS-85A (XVII)]
MIC (B. mallei): 0.5 µg/mL (≈ 0.529 µM)
IC50 (TB): 0.53 µg/mL (≈ 0.561 µM)
IC90 (TB): 0.57 µg/mL (≈ 0.603 µM)
MIC (TB): 0.625 µg/mL (≈ 0.661 µM)
MBC (H37Rv Colorado strain [1]): 1.25 µg/mL (≈ 1.32 µM)
IC50 (Plasmodium falciparum; [4]): 7.26 µM
IC50 (Plasmodium falciparum; read-out: IC50 Test 1): 5.45 µM
IC50 (Plasmodium falciparum; read-out: IC50 Test 2): 9.06 µM
MIC (H37Rv Colorado strain [2]): 1.25 µg/mL (≈ 1.32 µM)
MIC (F. tularensis): < 0.06 µg/mL
MIC (Y. pestis): 0.06 to 0.12 µg/mL (≈ 0.0635 to 0.127 µM)
MIC (E. coli): < 0.06 µg/mL
MIC (B. anthracis): < 0.06 µg/mL
% Viability (Vero Cells; 0.01 μg/ml): 109%
% Viability (Vero Cells; 0.02 μg/ml): 109%
% Viability (Vero Cells; 5 μg/ml): 106%
% Viability (Vero Cells; 10 μg/ml): 101%
% Viability (Vero Cells; 20 μg/ml, vs […] DMSO controls): 107%
MIC (B. pseudomallei): 8 µg/mL (≈ 8.47 µM)
MIC (P. aeruginosa): 0.5 µg/mL (≈ 0.529 µM)

O=C(O)C1=C(c2ccc(F)c(N3CCNCC3)c2)N(C23CC4CCC(C2)C(C4)C3)C(=O)CC1 (stereo not drawn) [BVS-97E (XIV)]
MIC (B. mallei): > 64 µg/mL
MIC (F. tularensis): 0.5 to 4 µg/mL (≈ 1.1 to 8.82 µM)
MIC (Y. pestis): > 64 µg/mL
MIC (E. coli): 16 to 32 µg/mL (≈ 35.3 to 70.6 µM)
MIC (B. anthracis): 4 µg/mL (≈ 8.82 µM)
MIC (B. pseudomallei): > 64 µg/mL
MIC (P. aeruginosa): > 64 µg/mL

CC(C)(O/N=C(\C(=O)N[C@@H]1C(=O)N2C(C(=O)[O-])=C(C[n+]3ccccc3)CS[C@H]12)c1csc(N)n1)C(=O)O [Ceftazidime, ceftazidime, reference compound]
MIC Range [3]: 0.5 to 32 µg/mL
MIC50 ([3]; Burkholderia pseudomallei): 2 µg/mL (≈ 3.66 µM)
MIC90 ([3]; Burkholderia pseudomallei): 4 µg/mL (≈ 7.32 µM)

O=C(O)c1cn(C2CC2)c2cc(N3CCNCC3)c(F)cc2c1=O [Ciprofloxacin, ciprofloxacin, reference compound]
MIC (B. mallei): 1 µg/mL (≈ 3.02 µM)
MIC (E. coli): 0.015 to 0.06 µg/mL (≈ 0.0453 to 0.181 µM)
MIC (B. anthracis): < 0.03 µg/mL
MIC (B. pseudomallei): 0.5 to 1 µg/mL (≈ 1.51 to 3.02 µM)
MIC (P. aeruginosa): 0.25 µg/mL (≈ 0.754 µM)

Nc1ccn([C@H]2CC[C@@H](CO)O2)c(=O)n1 [DDC, di-deoxycytosine, reference compound]
% RED. IN VIRAL CPE (HIV-1; 0.00003 μM): 1%
% RED. IN VIRAL CPE (HIV-1; 0.0001 μM): 5%
% RED. IN VIRAL CPE (HIV-1; 0.00032 μM): 6%
% RED. IN VIRAL CPE (HIV-1; 0.001 μM): 4%
% RED. IN VIRAL CPE (HIV-1; 0.0032 μM): 8%
% RED. IN VIRAL CPE (HIV-1; 0.01 μM): 9%
% RED. IN VIRAL CPE (HIV-1; 0.032 μM): 75%
% RED. IN VIRAL CPE (HIV-1; 0.1 μM): 81%
% RED. IN VIRAL CPE (HIV-1; 0.32 μM): 92%
% RED. IN VIRAL CPE (HIV-1; 1 μM): 86%
% RED. IN VIRAL CPE (HIV-1; 3.2 μM): 100%
% RED. IN VIRAL CPE (HIV-1; 10 μM): 100%
% CELL VIABILITY (CEM-SS cells; 0.00003 μM): 100%
% CELL VIABILITY (CEM-SS cells; 0.0001 μM): 93%
% CELL VIABILITY (CEM-SS cells; 0.00032 μM): 99%
% CELL VIABILITY (CEM-SS cells; 0.001 μM): 100%
% CELL VIABILITY (CEM-SS cells; 0.0032 μM): 100%
% CELL VIABILITY (CEM-SS cells; 0.01 μM): 100%
% CELL VIABILITY (CEM-SS cells; 0.032 μM): 100%
% CELL VIABILITY (CEM-SS cells; 0.1 μM): 96%
% CELL VIABILITY (CEM-SS cells; 0.32 μM): 97%
% CELL VIABILITY (CEM-SS cells; 1 μM): 100%
% CELL VIABILITY (CEM-SS cells; 3.2 μM): 100%
% CELL VIABILITY (CEM-SS cells; 10 μM): 100%

NNC(=O)c1ccncc1 [Isoniazid, isoniazid, reference compound]
MIC (TB): 0.06 µg/mL (≈ 0.438 µM)
MBC (H37Rv Colorado strain [1]): 0.031 µg/mL (≈ 0.226 µM)
MIC (H37Rv Colorado strain [2]): 0.031 µg/mL (≈ 0.226 µM)

C[C@H]1COc2c(N3CCN(C)CC3)c(F)cc3c(=O)c(C(=O)O)cn1c23 [Levofloxacin, reference compound]
survival (F. tularensis SCHU S4): 100%
survival (Y. pestis C092): 88.9%
